{
  "source": "paper PMC10244465",
  "about": "“Native American ataxia medicines rescue ataxia-linked mutant potassium channel activity via binding to the voltage sensing domain” (Nature Communications, 2023)",
  "key": {"[1]": {"target": "T1, Kv1.1/Kv1.1-E283K/Kv1.2 channels (Homo sapiens, UniProt Q09470, E283K)", "T1 construct": "expressed in transfected cells; host or cells: Xenopus laevis oocytes co-injected 1:1:2 Kv1.1:Kv1.1-E283K:Kv1.2 cRNA", "T1 sequence (Q09470 whole entry, stated change not applied)": "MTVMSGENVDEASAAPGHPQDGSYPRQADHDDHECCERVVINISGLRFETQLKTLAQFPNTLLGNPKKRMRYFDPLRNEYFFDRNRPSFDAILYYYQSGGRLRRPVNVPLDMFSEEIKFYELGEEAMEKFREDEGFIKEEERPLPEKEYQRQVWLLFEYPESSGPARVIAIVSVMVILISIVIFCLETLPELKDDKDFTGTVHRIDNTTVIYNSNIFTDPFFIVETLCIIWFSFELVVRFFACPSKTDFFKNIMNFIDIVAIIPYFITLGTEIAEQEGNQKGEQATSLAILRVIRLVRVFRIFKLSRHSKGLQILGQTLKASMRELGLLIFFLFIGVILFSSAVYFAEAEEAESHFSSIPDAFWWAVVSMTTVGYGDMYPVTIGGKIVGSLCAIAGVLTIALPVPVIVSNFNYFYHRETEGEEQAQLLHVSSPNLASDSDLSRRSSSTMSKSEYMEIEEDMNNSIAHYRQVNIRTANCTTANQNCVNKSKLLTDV", "T1 sequence (Q09470 whole entry E283K)": "as the sequence (Q09470 whole entry, stated change not applied) above, with E283K counted along it", "T1 sequence (P16389 whole entry partner)": "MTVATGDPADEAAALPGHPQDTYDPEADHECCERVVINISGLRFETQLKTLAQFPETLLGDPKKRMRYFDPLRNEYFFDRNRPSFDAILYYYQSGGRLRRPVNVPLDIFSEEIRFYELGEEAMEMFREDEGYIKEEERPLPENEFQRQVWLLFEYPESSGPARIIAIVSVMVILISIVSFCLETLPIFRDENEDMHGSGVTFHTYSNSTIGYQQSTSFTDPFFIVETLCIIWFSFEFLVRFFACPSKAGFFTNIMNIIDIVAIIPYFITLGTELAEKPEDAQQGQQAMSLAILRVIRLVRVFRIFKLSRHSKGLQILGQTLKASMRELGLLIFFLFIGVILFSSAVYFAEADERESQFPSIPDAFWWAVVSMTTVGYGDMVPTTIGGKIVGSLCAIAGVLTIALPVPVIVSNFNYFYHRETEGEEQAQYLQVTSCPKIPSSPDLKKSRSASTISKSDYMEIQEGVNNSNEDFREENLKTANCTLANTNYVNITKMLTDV", "test": "TEVC of oocytes co-injected 1:1:2 Kv1.1:Kv1.1-E283K:Kv1.2 cRNA", "format": "cell-based", "conditions": "even at 0.1 µM", "description": "(§1) Kv1.1 α subunits form heteromeric tetramers with other Kv1 subfamily α subunits, including Kv1.2, in the […] region of axons and some terminals, in the hippocampus (perforant input from entorhinal cortex, mossy fiber projections from granule cells to CA3, and CA3 axon collaterals)[7]–[11]. We therefore tested effects of gallic acid on Kv1.1/Kv1.2 heteromers generated in oocytes by co-injection of 1:1:2 parts Kv1.1:Kv1.1-E283K:Kv1.2 or Kv1.1:Kv1.1-L155P:Kv1.2 cRNA to approximate the Kv1.1/Kv1.2 heteromeric channel composition in EA1 patients heterozygous for either mutant KCNA1 allele. […]\n(§2) We performed TEVC at room temperature using an OC-725C amplifier (Warner Instruments, Hamden, CT) and pClamp10 software (Molecular Devices, Sunnyvale, CA) 2 days after cRNA injection as described in the section above. […] We recorded currents in response to voltage pulses between −80 mV and +40 mV at 10 or 20 mV intervals from a holding potential of −80 mV, to yield current-voltage relationships and examine activation kinetics. To calculate the voltage dependence of activation (V0.5), tail currents were recorded at a voltage pulse of −50 mV immediately following prepulse voltages between −80 mV and +40 mV. We analyzed data using Clampfit (Molecular Devices) and Graphpad Prism software (GraphPad, San Diego, CA, USA), stating values as mean ± SEM. […]"}, "[2]": {"target": "T2, Kv1.1/Kv1.1-L155P/Kv1.2 channels (Homo sapiens, UniProt Q09470, L155P)", "T2 construct": "expressed in transfected cells; host or cells: Xenopus laevis oocytes co-injected 1:1:2 Kv1.1:Kv1.1-L155P:Kv1.2 cRNA", "T2 sequence (Q09470 whole entry, stated change not applied)": "as the sequence (Q09470 whole entry, stated change not applied) above", "T2 sequence (Q09470 whole entry L155P)": "as the sequence (Q09470 whole entry, stated change not applied) above, with L155P counted along it", "T2 sequence (P16389 whole entry partner)": "as the sequence (P16389 whole entry partner) above", "test": "TEVC of oocytes co-injected 1:1:2 Kv1.1:Kv1.1-L155P:Kv1.2 cRNA", "format": "cell-based", "conditions": "at 0.1 µM and higher", "description": "as §1, §2"}},
  "data": [
    {"smiles": "O=C(O)c1cc(O)c(O)c(O)c1", "note": "[gallic acid]", "values": [
      {"measurement": "rescue of channel activity", "setting": "[1]", "value": "highly effective at rescuing"},
      {"measurement": "rescue of channel activity", "setting": "[2]", "value": "highly effective at rescuing"}
    ]}
  ]
}
